Molecular target: T1, DPP-IV (Homo sapiens, UniProt P27487)
T1 construct: an extract of the human colon carcinoma cell line Caco-2 is used as the DPP IV source; endogenous in cells; host or cells: Caco-2 (human colon carcinoma), differentiated to induce DPP-IV expression; extract solubilized with Nonidet-P40
Experiment: DPP-IV assay with Caco-2 cell extract as DPP IV source
Type: biochemical
Conditions: extract of human colon carcinoma cell line Caco-2; AFC substrate 100 μM; 60 minutes, ambient temperature; 11-point curves; read-out: DPP IV inhibition IC50
Method: The differentiation of the cells in order to induce the DPP-IV expression was carried out in accordance with the description by Reiher et al. in an article entitled “Increased expression of intestinal cell line Caco-2” that appeared in Proc. Natl. Acad. Sci. Vol. 90, pp. 5757-5761 (1993). The cell extract was obtained from cells solubilized in a buffer (10 mM Tris HCl, 0.15 M NaCl, 0.04 t.i.u. aprotinin, 0.5% Nonidet-P40, pH 8.0) by centrifugation at 35,000 g for 30 minutes at 4° C. (to remove cell debris).
The DPP-IV assay was carried out as follows:
50 μl of substrate solution (AFC; AFC is amido-4-trifluoromethylcoumarin), final concentration 100 μM, was placed in black microtitre plates. 20 μl of assay buffer (final concentrations 50 mM Tris HCl pH 7.8, 50 mM NaCl, 1% DMSO) was pipetted therein. The reaction was started by the addition of 30 μl of solubilized Caco-2 protein (final concentration 0.14 μg of protein per well). The test substances under investigation were typically added prediluted to 20 μl, while the volume of assay buffer was then reduced accordingly. The reaction was carried out at ambient temperature, the incubation period was 60 minutes. Then the fluorescence was measured in a Victor 1420 Multilabel Counter, with the excitation wavelength at 405 nm and the emission wavelength at 535 nm. Dummy values (corresponding to 0% activity) were obtained in mixtures with no Caco-2 protein (volume replaced by assay buffer), control values (corresponding to 100% activity) were obtained in mixtures without any added substance. The potency of the test substances in question, expressed as IC50 values, were calculated from dosage/activity curves consisting of 11 measured points in each case.

T1 sequence (P27487 whole entry): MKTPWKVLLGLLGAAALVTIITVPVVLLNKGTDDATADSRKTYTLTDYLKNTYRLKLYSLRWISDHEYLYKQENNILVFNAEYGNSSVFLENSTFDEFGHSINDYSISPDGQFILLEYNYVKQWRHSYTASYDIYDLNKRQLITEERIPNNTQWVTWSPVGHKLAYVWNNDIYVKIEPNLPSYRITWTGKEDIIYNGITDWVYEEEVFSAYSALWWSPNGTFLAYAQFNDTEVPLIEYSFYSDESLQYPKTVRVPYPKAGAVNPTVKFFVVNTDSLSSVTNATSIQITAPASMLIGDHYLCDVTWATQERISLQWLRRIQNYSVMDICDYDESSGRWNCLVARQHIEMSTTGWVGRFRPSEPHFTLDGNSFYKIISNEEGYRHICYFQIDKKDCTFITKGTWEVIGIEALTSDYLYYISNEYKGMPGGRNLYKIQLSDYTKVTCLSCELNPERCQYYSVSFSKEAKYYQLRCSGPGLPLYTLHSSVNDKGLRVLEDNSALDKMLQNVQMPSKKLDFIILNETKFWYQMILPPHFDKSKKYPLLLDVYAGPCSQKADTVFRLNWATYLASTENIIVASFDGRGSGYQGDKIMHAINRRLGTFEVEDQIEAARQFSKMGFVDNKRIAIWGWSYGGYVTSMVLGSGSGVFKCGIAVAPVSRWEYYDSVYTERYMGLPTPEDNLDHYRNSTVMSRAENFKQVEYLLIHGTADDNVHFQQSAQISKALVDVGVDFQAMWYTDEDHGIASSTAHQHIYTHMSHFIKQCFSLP

Structure (SMILES)	IC50
CC#CCn1c(N2CCC[C@@H](N)C2)nc2c(=O)n(Cc3ccccc3)n(Cc3ccc4ccccc4n3)c(=O)c21 [1(3), (R)-1-(but-2-ynyl)-2-(3-amino-piperidin-1-yl)-5-(phenylmethyl)-6-(quinolin-2-ylmethyl)-5,6-dihydro-1H-imidazo[4,5-d]pyridazine-4,7-dione×2 trifluoroacetic acid]	14 nM
CC#CCn1c(N2CCC[C@@H](N)C2)nc2c(=O)n(CC#N)n(Cc3ccc4ccccc4n3)c(=O)c21 [Example 1, (R)-1-(but-2-ynyl)-2-(3-amino-piperidin-1-yl)-5-cyanomethyl-6-(quinolin-2-ylmethyl)-5,6-dihydro-1H-imidazo[4,5-d]pyridazine-4,7-dione×2 trifluoroacetic acid]	1 nM
C=CCn1c(=O)c2nc(N3CCC[C@@H](N)C3)n(CC#CC)c2c(=O)n1Cc1ccc2ccccc2n1 [1(2), (R)-1-(but-2-ynyl)-2-(3-amino-piperidin-1-yl)-5-(prop-2-enyl)-6-(quinolin-2-ylmethyl)-5,6-dihydro-1H-imidazo[4,5-d]pyridazine-4,7-dione×2 trifluoroacetic acid]	6 nM
CC#CCn1c(N2CCC[C@@H](N)C2)nc2c(=O)n(C)n(Cc3cccc4ccccc34)c(=O)c21 [1(4), (R)-1-(but-2-ynyl)-2-(3-amino-piperidin-1-yl)-5-methyl-6-(naphth-1-ylmethyl)-5,6-dihydro-1H-imidazo[4,5-d]pyridazine-4,7-dione×1 trifluoroacetic acid]	52 nM
CC#CCn1c(N2CCC[C@@H](N)C2)nc2c(=O)n(C)n(Cc3ccc4ccccc4n3)c(=O)c21 [1(1), (R)-1-(but-2-ynyl)-2-(3-amino-piperidin-1-yl)-5-methyl-6-(quinolin-2-ylmethyl)-5,6-dihydro-1H-imidazo[4,5-d]pyridazine-4,7-dione×2 trifluoroacetic acid]	4 nM
